B1: L-Ile hydroxylase: L-isoleucine dioxygenase purified from Bacillus thuringiensis strain 2-e-2, SEQ ID NO: 2 (protein, listed as Bacillus thuringiensis)
chain: KMSGFSIEEKVHEFESKGFLEISNEIFLQEEENHSLLTQAQLDYYNLEDDAYGECRARSYSRYIKYVDSPDYILDNSNDYFQSKEYNYDDGGKVRQFNSINDSFLCNPLIQNIVRFDTEFAFKTNIIDKSKDLIIGLHQVRYKATKERPSFSSPIWLHKDDEPVVFLHLMNLSNTAIGGDNLIANSPREINQFISLKEPLETLVFGQKVFHAVTPLGTECSTEAFRDILLVTFSYKETK

Legend:
[1] = system: isolated perfused rat pancreas; settings: stimulating effect dependent on plasma glucose concentrations; cited from earlier work
[2] = system: human pancreatic islets; settings: stimulating effect dependent on plasma glucose concentrations; cited from earlier work
[3] = IDO activity assay in crude cell lysate of recombinant E. coli strains; assay type: biochemical, Escherichia coli
Procedure: 2.4. The IDO activity assay in crude cell lysate of TG1[pMW119-IDO(Lys, 23) and TG1[pMW119-IDO(Lys, 32): To investigate the IDO activity in crude cell lysates of recombinant E. coli strains, the following procedures were carried out. Cells from 5 ml of culture were harvested by centrifugation at 4° C., re-suspended in 0.5 ml of buffer A*(50 mM TRIZMA, 5% glycerol, 1 mM EDTA, 1 mM DTT, pH 7 adjusted by HCl) and disrupted by sonication at 4° C. The reaction mixture (50 μl) contained 50 mM HEPES pH 7.0, 5 mM Ile, 0.5 mM α-ketoglutarate, 5 mM ascorbate, 5 mM FeSO4, and an aliquot of the protein preparation. The reaction was incubated at 34° C. for 1 hour with shaking. The synthesized 4HIL was detected using TLC or HPLC analysis as described in Example 4.

[4] = Optimum pH, optimum temperature and temperature stability of purified L-Ile hydroxylase; assay type: biochemical, Bacillus thuringiensis; settings: enzyme solution pH 7.0 incubated 1 hour at 0 to 70° C.
Procedure: By using L-Ile hydroxylase prepared as described in Example 2, pH dependency on the producing of the 4-hydroxyisoleucine was evaluated. The enzymatic reaction solution contained 5 mM L-Ile, 5 mM Fe^2+, 5 mM 2-oxoglutaric acid, 5 mM ascorbic acid and 200 mM GTA (pH 3 to 12). The reaction temperature was 30° C. […] Production of a large amount was confirmed at pH 4 to 8, and production of the most 4-hydroxyisoleucine was confirmed at pH 5 to 8.
By using L-Ile hydroxylase prepared as described in Example 2, the optimum temperature of the 4-hydroxyisoleucine production activity was evaluated. The enzymatic reaction solution contained 5 mM Ile, 5 mM Fe^2+, 5 mM 2-oxoglutaric acid, 5 mM ascorbic acid, and 100 mM HEPES (pH 6). […] High production was confirmed for the temperature range of 0 to 40° C.
By using L-Ile hydroxylase prepared as described in Example 2, the temperature stability during production of 4-hydroxyisoleucine was evaluated. The enzyme solution at pH 7.0 was incubated at 0 to 70° C. for 1 hour, and then the Ile hydroxylation activity was measured. The enzymatic reaction solution contained 5 mM Ile, 5 mM Fe^2+, 5 mM 2-oxoglutaric acid, 5 mM ascorbic acid, and 100 mM HEPES (pH 6), and the reaction temperature was 30° C. These values are relative to the storage temperature which produced the maximum amount of hydroxyisoleucine, which was set as 100%. […]

Molecule	insulinotropic activity [1]	insulinotropic activity [2]	IDO activity in comparison with IDO(Lys,32) [3] [times]	temperature at which enzyme was inactivated [4] [°C]
C[C@@H]([C@H](C)O)[C@H](N)C(=O)O [4-Hydroxy-L-isoleucine, (2S,3R,4S)-4-hydroxy-L-isoleucine]	insulinotropic activity	insulinotropic activity	–	–
B1	–	–	5	≥ 60

— patent US8273562B2, “Method for producing 4-hydroxy-L-isoleucine” (Ajinomoto Co., Inc., priority 2006, dated 2012)
